Measurements as given in publication PMC3285636, “Identification by Virtual Screening and In Vitro Testing of Human DOPA Decarboxylase Inhibitors” (PLoS ONE, 2012).
Entries after “also recorded” stand apart in the source; their conditions may differ. Like-named read-outs stand apart in the source and are kept apart here. Marks after values point to notes of the source that are not given here.

Columns and labels:
human DDC [1] = target: T1, human DDC (Homo sapiens, UniProt P20711); test: Assay of the inhibitory activity: spectrophotometric measurement of dopamine production by DDC; assay type: biochemical; conditions: for IC50: 0.1 mM L-Dopa, pH 7.4, 25°C, 9 concentrations in duplicate; for BE (binding efficiency): binding energy per unit of mass, from Ki and molecular weight in kDa; for Inhibition profile: type of inhibition from Lineweaver–Burk plots; for Ki′: mixed or noncompetitive inhibition
T1 construct: made in house
T1 sequence (P20711 1-480): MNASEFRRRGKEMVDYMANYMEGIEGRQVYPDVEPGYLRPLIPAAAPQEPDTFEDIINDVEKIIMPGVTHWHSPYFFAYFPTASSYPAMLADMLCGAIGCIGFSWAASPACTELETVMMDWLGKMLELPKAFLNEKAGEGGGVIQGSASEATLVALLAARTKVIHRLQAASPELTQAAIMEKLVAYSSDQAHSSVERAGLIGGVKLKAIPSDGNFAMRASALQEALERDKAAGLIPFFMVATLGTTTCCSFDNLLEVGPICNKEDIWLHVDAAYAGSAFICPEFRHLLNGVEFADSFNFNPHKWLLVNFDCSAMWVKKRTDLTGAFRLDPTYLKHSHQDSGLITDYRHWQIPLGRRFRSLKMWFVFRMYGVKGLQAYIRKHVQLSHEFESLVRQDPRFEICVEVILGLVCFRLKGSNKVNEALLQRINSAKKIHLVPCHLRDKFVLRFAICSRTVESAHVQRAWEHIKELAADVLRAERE
Method: DDC activity was determined by measuring the production of dopamine with a spectrophotometric assay outlined by Sherald et al. and modified by Charteris and John. The reaction was carried out in 0.1 M potassium phosphate buffer pH 7.4 at 25°C for 1 min and stopped by inactivation of the enzyme at 100°C for 90 sec. The inhibitory assay was performed by measuring the decarboxylase activity of DDC with 50 nM enzyme, 0.1 mM L-Dopa, and 10 µM PLP in the presence and in the absence of a fixed amount of each compound. Various amounts of dimethyl sulphoxyde (DMSO) were necessary to solubilize the compounds in 100 mM potassium phosphate buffer, pH 7.4. […] Compounds were evaluated at 9 concentrations, and each in duplicate. IC50 values were derived by nolinear regression analysis. The related inhibition type of the compounds on human DDC was identified from Lineweaver–Burk plots, and Ki and/or Ki′ values for the inhibitors tested were calculated by the software Origin 7.0.

human DDC [2] = target: T1, human DDC; test: Enzyme-ligand equilibrium dissociation constant from visible CD signal changes of DDC; assay type: binding; conditions: change of 420 nm or 335 nm CD band, 100 mM potassium phosphate pH 7.4
Method: The equilibrium dissociation constant for each tested compound from DDC was determined by monitoring the decrease in the 420 nm CD signal of DDC (7 µM) in the presence of various ligand concentrations in 100 mM potassium phosphate buffer, pH 7.4. In any case, the maximun DMSO concentration in the mixture was kept lower than 1% (v/v). The KD values were obtained from the fitting of the data to the equation [drawing 3] where [E]t and [L]t represent the total concentrations of DDC dimer and ligand, respectively, Y refers to the visible CD signal change at 420 nm at the ligand concentration [L], and Ymax refers to the CD signal when all enzyme molecules are complexed with the ligand. CD measurements were performed with a Jasco J-710 spectropolarimeter using quartz cuvettes with 1 cm path length.

[3] = 50 nM enzyme, 10 µM PLP, read-out: IC50
[4] = 50 nM enzyme, L-Dopa, 10 µM PLP, 0.1 M potassium phosphate pH 7.4, 25°C, from Lineweaver–Burk plots, read-out: Ki
[5] = at a concentration in which solubility of the compound was maximum
[6] = 0.1 M potassium phosphate pH 7.4, 25°C, from Lineweaver–Burk plots
[7] = Ki, competitive inhibition, Table 4, third screening

SMILES | IC50 (human DDC [1]; [3]) | Ki (human DDC [1]; [4]) | Inhibition of DDC activity (human DDC [1]; [5]) | BE (binding efficiency) (human DDC [1]) | Inhibition profile (human DDC [1]) | Ki′ (human DDC [1]; [6]) | further results
O=C(O)c1cccc(NS(=O)(=O)c2ccc3nnn(O)c3c2)c1 [Compound 1] | 570 ± 66 µM | 106 ± 7 µM | ≥ 70% | 11.9 | competitive inhibition | – | Kd (human DDC [2]): 240 ± 68 µM
O=S(=O)(c1ccc2nnn(O)c2c1)N1CCCCC1 [Compound 2] | 1500 ± 220 µM | 390 ± 30 µM | ≥ 70% | 12.1 | competitive inhibition | – | Kd (human DDC [2]): 516 ± 126 µM
CCOc1cc(-c2ccc(O)c(O)c2)cc(=O)c2c(C)oc(C)c12 [Compound 6] | – | – | do not inhibit DDC activity | – | – | – | –
Cc1cccc(NC(=O)COC(=O)c2[nH]c(=O)[nH]c(=O)c2N)c1C [Compound 8] | – | – | do not inhibit DDC activity | – | – | – | –
O=C1C(=Cc2ccc(O)c(O)c2)C(=O)c2ccccc21 [Compound 10] | 12.8 ± 0.4 µM | 6.03 ± 0.55 µM | ≥ 70% | – | mixed inhibition | 23.1 ± 1.1 µM | –
Oc1cccc(/C=N/n2c(S)nnc2-c2ccc(Cl)cc2Cl)c1O [Compound 11] | 27.3 ± 1.6 µM | 10.7 ± 2.4 µM | ≥ 70% | 13.0 | competitive inhibition | – | Kd (human DDC [2]): 16.1 ± 2.1 µM
Nc1c(S(=O)(=O)c2ccccc2)c2nc3ccccc3nc2n1/N=C/c1ccc(O)c(O)c1 [Compound 12] | – | – | ~55% | – | noncompetitive inhibition | 19.4±1.4^b µM | –
CC(C)C(NC(=O)Cc1n[nH]c(=O)c2ccccc12)c1nc2ccccc2[nH]1 (stereo not shown) [Compound 13] | – | – | do not inhibit DDC activity | – | – | – | –
O=C1Nc2ccc(S(=O)(=O)N3CCCCC3)c3cccc1c23 [Compound 15] | – | – | do not inhibit DDC activity | – | – | – | –
O=C(O)c1ccccc1NS(=O)(=O)c1ccc2[nH]c(=O)[nH]c2c1 [Compound 16] | – | 59.8 ± 0.3 µM | – | 12.7 | competitive inhibitors | – | –
O=C(Nc1ccccc1)c1ccccc1NS(=O)(=O)c1ccc2[nH]c(=O)[nH]c2c1 [Compound 17] | 16.8 ± 1.7 µM | 4.4 ± 1.4 µM | – | 13.1 | competitive inhibitors | – | increase of affinity (human DDC [1]; compared with compound 5): about 13 fold; Kd (human DDC [2]): 17.5 ± 5.1 µM
Oc1ccc(/C=N/n2c(S)nnc2-c2ccc(Cl)cc2Cl)cc1 [Compound 18] | – | 63.2 ± 3.1 µM | – | 11.5 | competitive inhibitors | – | –
Oc1ccccc1/C=N/n1c(S)nnc1-c1ccc(Cl)cc1Cl [Compound 19] | – | – | – | – | – | – | DDC inhibitory activity in words (human DDC [1]; structure-activity discussion): poorly active
Oc1cccc(/C=N/n2c(S)nnc2-c2ccc(Cl)cc2Cl)c1 [Compound 20] | – | 36.8 ± 4.2 µM | – | 12.1 | competitive inhibitors | – | Kd (human DDC [2]): 28.2 ± 3.2 µM
Oc1ccc(/C=N/n2c(S)nnc2-c2ccc(Cl)cc2)cc1O [Compound 21] | 6.3 ± 0.9 µM | 2.3 ± 0.4 µM | – | 16.3 | competitive inhibitors | – | Kd (human DDC [2]): 2.5 ± 0.7 µM
Oc1ccc(/C=N/n2c(S)nnc2-c2ccccc2)c(O)c1O [Compound 22] | 6.7 ± 0.9 µM | 15.1 ± 0.1 µM | – | – | mixed mode | 46.7 ± 0.5 µM | –
Oc1cccc(/C=N/n2c(S)nnc2-c2ccccc2)c1O [Compound 23] | – | < 10 µM | – | 16.8 | competitive inhibitors | – | IC50 (human DDC [1]; 50 nM enzyme, 10 µM PLP): 16.6 ± 0.3 µM; Ki (human DDC [1]; Ki, 50 nM enzyme, L-Dopa, 10 µM PLP, 0.1 M potassium phosphate pH 7.4, 25°C, from Lineweaver–Burk plots): 5.7 ± 0.1 µM; Kd (human DDC [2]): 4.7 ± 0.5 µM
Oc1cccc(/C=N/n2c(S)nnc2-c2ccc(Cl)cc2)c1 [Compound 24] | 77.1 ± 2.4 µM | 120 ± 14 µM | – | 11.9 | competitive inhibitors | – | –
Oc1ccc(/C=N/n2c(S)nnc2-c2ccccc2Cl)cc1O [Compound 25] | 15.2 ± 1.3 µM | 3.7 ± 0.2 µM | – | 15.7 | competitive inhibitors | – | Kd (human DDC [2]): 2.4 ± 0.1 µM
Oc1ccc(C=Nn2c(S)nnc2-c2ccc(Cl)cc2)c(O)c1 [Compound 26] | – | – | – | 12.1 | noncompetitive inhibitors; also recorded: Nonconmpetitive | 65.2±−4.1^b µM | –
Oc1ccc(C=Nn2c(S)nnc2-c2ccccc2)c(O)c1 [Compound 27] | – | 24.8 ± 1.2 µM | – | – | mixed mode | 43.1 ± 1.9 µM | –
Oc1ccccc1/C=N/n1c(S)nnc1-c1ccccc1Cl [Compound 29] | – | 44.4 ± 2.3 µM | – | – | mixed mode | 208 ± 3 µM | –
Oc1c(Br)cc(Br)cc1/C=N/n1c(S)nnc1-c1ccc(Cl)cc1Cl [Compound 32] | – | 4.5 ± 0.3 µM | – | – | mixed mode | 17 ± 0.2 µM | –
Oc1ccccc1/C=N/n1c(S)nnc1-c1ccc(F)cc1 [Compound 33] | – | 16.5 ± 0.8 µM | – | – | mixed mode | 325 ± 39 µM | –
Oc1ccc(/C=N/n2c(S)nnc2-c2ccc(Cl)cc2Cl)c(O)c1 [Compound 35] | 29 ± 2 µM | – | – | – | noncompetitive inhibitors | 127±16^b µM | –
Oc1ccc(/C=N/n2c(S)nnc2-c2ccco2)cc1O [Compound 40] | 3.5 ± 0.2 µM | – | – | 19,4 | – | – | Ki (human DDC [1]; [7]): 1.4 ± 0.1 µM
COc1ccc(-c2nnc(S)n2/N=C/c2ccc(O)c(O)c2)cc1 [Compound 44] | 1.7 ± 0.2 µM | – | – | 18,4 | – | – | Ki (human DDC [1]; [7]): 0.5 ± 0.1 µM
Oc1ccc(/C=N/n2c(S)nnc2COc2ccccc2)cc1O [Compound 46] | 3.5 ± 0.3 µM | – | – | 17,4 | – | – | Ki (human DDC [1]; competitive inhibition, Table 4, third screening, read-out: Ki): 1.1 ± 0.1 µM
COc1ccccc1-c1nnc(S)n1/N=C/c1ccc(O)c(O)c1 [Compound 47] | > 200 µM | – | – | – | – | – | Inhibition of DDC activity (human DDC [1]; at 200 µM (the concentration of its maximum solubility)): does not inhibit DDC activity
